Consider two molecules from patent US20160051629A1, “INHIBITION OF RIP KINASES FOR TREATING LYSOSOMAL STORAGE DISEASES” (YEDA RESEARCH AND DEVELOPMENT CO. LTD., priority 2013, published 2016).

Data set [1] relates to Gaucher disease mice. Kind of data set: Anakinra (IL-1Ra) treatment of CBE-induced Gaucher disease mice. It counts as in vivo. As to the method:
Mice were injected i.p. with 50 mg/kg/day CBE or CBE+IL-1Ra (Anakinra, 75 mg/kg) from 8 days of age. Body weight (FIG. 7A) and life span (FIG. 7B) of mice treated with either CBE only or CBE+Anakinara (n=3).
Gba^flox/flox; mice were crossed with Gba^flox/+; Nestin-Cre mice to generate Gba^flox/flox; Nestin-Cre mice (Enquist, I. B. et al. 2007. Proc. Natl. Acad. Sci. U.S.A. 104, 17483-17488) and Gba^flox/+; Nestin-Cre mice, which served as healthy controls. Genotyping was performed by PCR using genomic DNA extracted from mouse tails or embryonic brains (Farfel-Becker, T. et al. 2009. Hum. Mol. Genet. 18, 1482-1488). Both male and female mice were used. The colony was maintained in the experimental animal center of the Weizmann Institute of Science. All animal experiments were approved by the Weizmann Institute Institutional Animal Care and Use Committee. Mice deficient in galactocerebrosidase (the Twitcher mouse) were used as a model of Krabbe disease (Suzuki. K. & Taniike, M. 1995. Res. Tech. 32, 204-214), mice deficient in the β-subunit of β-hexosaminidase A and B were used as a model of Sandhoff disease (Sango, K. et al. 1995. Nat. Genet. 11, 170-176). Brains from a mouse model of the GM1 gangliosidosis (Hahn, C. N. et al. 1997. Hum. Mol. Genet. 6, 205-211), defective in lysosomal β-galactosidase, and from Niemann-Pick disease Type C1 mice (Pentchev, P. G. et al. 1984. J. Biol. Chem. 259, 5784-5791), defective in the NPC1 gene, were also used. Mice deficient in TNFα (strain B6; 129S6-Tnftm1Gkl/J, The Jackson Laboratory) were provided by Dr. David Wallach (Weizmann Institute, Israel). C57BL/6J (The Jackson Laboratory) mice were injected daily intraperitoneally with 50 mg CBE/kg body weight/day (Kanfer, J. N. et al. 1975. Biochem. Biophys. Res. Commun. 67, 85-90) or with phosphate-buffered saline from 8 days of age.

For data set [2] the following is noted: in vivo; cited from earlier work.

Consider “Anakinra: a recombinant, non-glycosylated version of human IL-1 receptor antagonist, sold under the trade name KINERET (Amgen)”, for which, in data set [1] (50 mg/kg/day CBE i.p. + IL-1Ra (Anakinra, 75 mg/kg) from 8 days of age, FIG. 7), the “clinical course of Gaucher disease mice” value is “improves the clinical course”. In addition, in data set [1] (CBE-treated mice, 50 mg/kg/day CBE i.p. + Anakinra 75 mg/kg from 8 days of age, vs CBE only, n=3, FIG. 7A), the “gain weight (body weight)” value is “improves gain weight”. The life-span result in data set [1] (CBE-treated mice, 50 mg/kg/day CBE i.p. + Anakinra 75 mg/kg from 8 days of age, vs CBE only, n=3, FIG. 7B) was “improves”.
For orientation: half-life means the time in which the quantity being followed falls by half. Turning to `CN1C(=O)C(Cc2c[nH]c3ccccc23)NC1=S` (centres unmarked) [Nec-1, necrostatin-1], in data set [2], the “crossing of the blood-brain barrier” value was “crosses the blood-brain barrier” and the half-life is roughly 1 h.
